In brackets after ≈: the same amount, converted by molar mass. Like-named read-outs stand apart in the source and are kept apart here.
Key:
[1] = tested on: Trichophyton tonsurans; test: In vitro antifungal activity vs. dermatophytes (MIC/MFC); assay type: cell-based; settings: Trichophyton tonsurans (n = 15)
[2] = tested on: T. mentagrophytes; test: as above; assay type: cell-based; settings: T. mentagrophytes (n = 15)
[3] = tested on: Microsporum canis; test: as above; assay type: cell-based; settings: Microsporum canis (n = 15)
[4] = tested on: T. rubrum; test: as above; assay type: cell-based; settings: T. rubrum (n = 15)
[5] = tested on: T. rubrum, Terbinafine resistant isolates; test: as above; assay type: cell-based
[6] = tested on: M. vanbreuseghemii; test: as above; assay type: cell-based; settings: M. vanbreuseghemii (n = 1)
[7] = tested on: C. glabrata; test: In vitro antifungal activity vs. yeasts (MIC/MFC); assay type: cell-based; settings: Nakaseomyces glabratus, C. glabrata (n = 1)
[8] = tested on: C. lusitaniae; test: In vitro antifungal activity vs. yeasts (MIC/MFC); assay type: cell-based; settings: Clavispora lusitaniae, C. lusitaniae (n = 1)
[9] = tested on: C. lipolytica; test: In vitro antifungal activity vs. yeasts (MIC/MFC); assay type: cell-based; settings: Yarrowia lipolytica, C. lipolytica (n = 1)
[10] = tested on: C. krusei; test: In vitro antifungal activity vs. yeasts (MIC/MFC); assay type: cell-based; settings: Pichia kudriavzevii, C. krusei (n = 1)
[11] = tested on: Malassezia furfur; test: In vitro antifungal activity vs. yeasts (MIC/MFC); assay type: cell-based; settings: Malassezia furfur (n = 1)
[12] = tested on: Staphylococcus aureus 29213; test: In vitro Antibacterial Activity; assay type: cell-based; settings: read-out: MIC90
[13] = tested on: ergosterol biosynthesis; test: 13C-acetate incorporation into ergosterol; assay type: cell-based, Candida albicans; settings: drug at about its MIC, added after the first 15 minutes
[14] = tested on: C. albicans; test: Effect on the morphology of growing Candida albicans cultures; assay type: cell-based; settings: inhibiting concentrations
[15] = tested on: C. albicans spores; test: Effect on the germination of C. albicans (MTT); assay type: cell-based; settings: drug added after 3 hours
[16] = tested on: Candida albicans; test: Mouse vaginal infection, topical dosing; assay type: in vivo; settings: mice; topically 0.01% daily for five days
Description: The efficacy of compound III″ in vaginal infections of small mammals has been shown. Mice were vaginally infected with Candida albicans. Compound III″ was administered topically at 0.01% daily for five days. Fungal burden decreased 86% compared to the untreated control (see FIG. 14 showing vaginal fungal burden as determined by colony forming units (CFU) from vaginal lavage fluid).

[17] = tested on: Candida albicans; test: In vitro fungicidal activity vs. Candida albicans
[18] = tested on: Coccidioides spp.; test: microbe, parasite or virus in culture; assay type: cell-based
[19] = tested on: C. neoformans; test: Susceptibility of clinical isolates (MIC, broth dilution); assay type: cell-based; settings: C. neoformans (n = 18)
Description: (§1) The efficacy of compound IV″ was investigated on 563 clinical isolates of 33 human fungal pathogens. […] For species with n≧10, the MIC90 (MIC, minimal inhibitory concentration) is given as ng/ml. For species with n≦10, the MIC range is given as ng/ml. 24 h and 48 h reads are indicated (Table 1).

[20] = tested on: Fonsecaea pedrosi; test: as above; assay type: cell-based; settings: Fonsecaea pedrosi (n = 4)
Description: as §1

[21] = tested on: Fusarium solani; test: as above; assay type: cell-based; settings: Fusarium solani (n = 10)
Description: as §1

[22] = tested on: Phialophora verrucosa; test: as above; assay type: cell-based; settings: Phialophora verrucosa (n = 4)
Description: as §1

[23] = tested on: Sporothrix schenckii; test: as above; assay type: cell-based; settings: Sporothrix schenckii (n = 10)
Description: as §1

[24] = tested on: Zygomycetes; test: as above; assay type: cell-based; settings: Zygomycetes (n = 20)
Description: as §1

[25] = tested on: OLE1; test: OLE1 expression by real time PCR; assay type: cell-based, C. albicans; settings: 250 ng/ml; 120 min; vs drug free control
Description: Numbers indicate time intervals in minutes. Expression values are normalized to TUB1 and given as multiples of OLE1 expression at 10 minutes in ethanol.
Similarly, the expression of OLE1 in C. albicans was investigated in response to compound IV″. In the presence of 250 ng/ml Compound IV, OLE1 transcript levels were increased 4-fold after 120 min incubation time compared to the drug free control. […] Expression values are normalised to TUB1 and given as multiples of OLE1 expression at 10 minutes in ethanol.

[26] = GVS moisture sorption; assay type: physicochemical; settings: 25° C.
Description: Sorption isotherms were obtained using a Hiden IGASorp moisture sorption analyser, controlled by CFRSorp software. The sample temperature was maintained at 25° C. by a Huber re-circulating water bath. The humidity was controlled by mixing streams of dry and wet nitrogen, with a total flow rate of 250 ml.min-1. The relative humidity (RH) was measured by a calibrated Vaisala RH probe (dynamic range of 0-95% RH), located near the sample. The weight change, (mass relaxation) of the sample as a function of % RH was constantly monitored by the microbalance (accuracy ±0.001 mg). Typically 10-20 mg of sample was placed in a tared mesh stainless steel basket under ambient conditions. The sample was loaded and unloaded at 40% RH and 25° C. (typical
room conditions). A moisture sorption isotherm was performed. The software uses a least squares minimisation procedure together with a model of the mass
relaxation, to predict an asymptotic value. The measured mass relaxation value must be within 5% of that predicted by the software, before the next % RH value is selected. The sample was recovered after completion of the isotherm and re-analysed by XRPD.

[27] = 90% inhibition endpoint, read-out: MIC

## O=C(O)CCCCCCC/C=C\C#CC#Cc1ccco1 [Compound III″]
[1]; 96 h, 35° C., 4 days
  MIC: < 0.06 ng/mL
[1]
  MFC: < 0.06 ng/mL
[1]; MIC90, 48 h
  MIC90/MIC range 48 h: <0.06 ng/mL
[2]; MIC90, 48 h
  MIC90/MIC range 48 h: <0.06 ng/mL
[2]; Trichophyton mentagrophytes, 96 h, 35° C., 4 days
  MIC: < 0.06 ng/mL
[2]; Trichophyton mentagrophytes
  MFC: 0.1 ng/mL (≈ 0.352 nM)
[3]; 96 h, 35° C., 4 days
  MIC: < 0.06 ng/mL
[3]
  MFC: 0.5 ng/mL (≈ 1.76 nM)
[3]; MIC90, 48 h
  MIC90/MIC range 48 h: <0.06 ng/mL
[4]; MIC90, 48 h
  MIC90/MIC range 48 h: <0.06 ng/mL
[4]; Trichophyton rubrum, 96 h, 35° C., 4 days
  MIC: < 0.06 ng/mL
[4]; Trichophyton rubrum
  MFC: < 0.06 ng/mL
[5]; T. rubrum, Terbinafine resistant isolates (n = 9), 48 h
  MIC90/MIC range 48 h: <0.06 ng/mL
[5]; Trichophyton rubrum, 96 h, T. rubrum (TERB-resistant) (n = 9), 35° C., 4 days
  MIC: < 0.06 ng/mL
[5]; Trichophyton rubrum, T. rubrum (TERB-resistant) (n = 9)
  MFC: < 0.06 ng/mL
[6]; 96 h, 35° C., 4 days
  MIC: 30 ng/mL (≈ 106 nM)
[6]
  MFC: 16000 ng/mL (≈ 56300 nM)
[6]; 48 h
  MIC90/MIC range 48 h: 30 ng/mL (≈ 106 nM)
[7]
  MFC: 500 ng/mL (≈ 1760 nM)
[7]; 90% inhibition endpoint
  MIC: 8 ng/mL (≈ 28.1 nM)
[8]
  MFC: < 0.06 ng/mL
[8]; [27]
  MIC: < 0.06 ng/mL
[9]
  MFC: < 0.06 ng/mL
[9]; [27]
  MIC: < 0.06 ng/mL
[10]
  MFC: 1 ng/mL (≈ 3.52 nM)
[10]; 90% inhibition endpoint
  MIC: 0.5 ng/mL (≈ 1.76 nM)
[11]
  MFC: < 0.06 ng/mL
[11]; [27]
  MIC: < 0.06 ng/mL
[12]
  MIC90: 50000 ng/mL (≈ 176000 nM)
[13]
  net biosynthesis of ergosterol (13C-acetate incorporation): did not significantly inhibit the net biosynthesis of ergosterol
[14]; microscopy
  effect on hyphal tube formation: prevented hyphal tube formation
[14]; microscopy and MTT
  effect on cell growth: fungicidal, totally preventing cell growth
[15]
  growth of spores germinated in the absence of drug: effectively inhibited the subsequent growth of spores
[16]
  decrease of vaginal fungal burden (CFU, lavage fluid): 86%
[17]; Candida albicans
  Fungicidal Concentration: 0.4 ng/mL
[17]; Candida albicans, 24 h, read-out: MIC90 24 h
  MIC90: 0.4 ng/mL (≈ 1.41 nM)
[17]; Candida albicans, 48 h, read-out: MIC90 48 h
  MIC90: 0.4 ng/mL (≈ 1.41 nM)
[17]; growth-negative samples after 24 hr incubation, subcultured
  remaining organisms: < 5 cfu/ml

## O=C([O-])CCCCCCC/C=C\C#CC#Cc1ccco1.[K+] [Compound IV″, potassium (Z)-14-(furan-2-yl)tetradeca-9-en-11,13-diynoate]
[18]; Coccidioides spp. (n = 30), MIC90
  MIC90/MIC range 48 h: 30 ng/mL
[18]; Coccidioides, 48 h
  MIC90: 30 ng/mL
[19]
  MIC90/MIC range 48 h: 2000 ng/mL
[20]
  MIC90/MIC range 48 h: 80 to 2560 ng/mL
[21]
  MIC90/MIC range 48 h: >64000 ng/mL
[22]
  MIC90/MIC range 48 h: 40 to 640 ng/mL
[23]
  MIC90/MIC range 48 h: 32 to 5120 ng/mL
[24]
  MIC90/MIC range 48 h: 16000 ng/mL
[25]
  increase of OLE1 transcript levels: 4 fold
[26]; GVS
  moisture uptake behaviour: takes up very little moisture until it reaches approximately 70-80% RH
[26]; at 90% RH
  moisture uptake in weight: 28%

— patent publication US8722910B2, “Diyne compositions” (Evolva AG, priority 2009, dated 2014)
